From the supplement of paper PMC10307832

Key:
Assay in all cases: relative viability (nuclei count vs DMSO), 5 days (fraction); higher = more cells survive
[1] = test system: CAL-12T
How it was run: (§1)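 Lung cancer cell lines were pin-tool dosed in 1536-well plates on the day after seeding, with either a lone drug or a fixed anchor-drug dose plus five library-drug doses (not always all listed) in √10 steps. Nuclei were counted on 4× images after 5 days. Relative viability is the ratio of treated-well to vehicle-well nuclei counts, with each value a median of duplicate plates.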

[2] = test system: HOP-62
How it was run: as §1

[3] = test system: NCI-H322M
How it was run: as §1

[4] = test system: ChaGo-K-1
How it was run: as §1

[5] = test system: ABC-1
How it was run: as §1

[6] = test system: NCI-H441
How it was run: as §1

[7] = test system: NCI-H358
How it was run: as §1

[8] = test system: EMC-BAC-2
How it was run: as §1

[9] = test system: LXF-289
How it was run: as §1

[10] = test system: NCI-H1755
How it was run: as §1

[11] = test system: COR-L 105
How it was run: as §1

[12] = test system: NCI-H1975
How it was run: as §1

[13] = test system: NCI-H2126
How it was run: as §1

[14] = test system: NCI-H3122
How it was run: as §1

[15] = test system: NCI-H1915
How it was run: as §1

[16] = test system: NCI-H1666
How it was run: as §1

[17] = test system: HCC-78
How it was run: as §1

[18] = test system: NCI-H1993
How it was run: as §1

[19] = test system: NCI-H2085
How it was run: as §1

[20] = test system: NCI-H2023
How it was run: as §1

[21] = test system: NCI-H522
How it was run: as §1

[22] = test system: EPLC-272H
How it was run: as §1

[23] = test system: HCC-15
How it was run: as §1

[24] = test system: UMC-11
How it was run: as §1

CC(C)Oc1cc(Nc2nc(N[C@@H](C)c3ccc(F)cn3)ncc2Cl)n[nH]1 [AZ23] + O=C(c1cc(Cc2n[nH]c(=O)c3ccccc23)ccc1F)N1CCN(C(=O)C2CC2)CC1 [Olaparib] (partner 8 µM)
relative viability ([1]; first compound 0.01 µM): 0.752 | relative viability ([1]; first compound 0.03162 µM): 0.747 | relative viability ([1]; first compound 0.3162 µM): 0.745 | relative viability ([2]; first compound 0.03162 µM): 0.477 | relative viability ([2]; first compound 0.3162 µM): 0.379 | relative viability ([3]; first compound 0.01 µM): 0.564 | relative viability ([3]; first compound 0.03162 µM): 0.749 | relative viability ([3]; first compound 0.3162 µM): 0.741 | relative viability ([4]; first compound 0.01 µM): 0.519 | relative viability ([4]; first compound 0.03162 µM): 0.407 | relative viability ([4]; first compound 0.3162 µM): 0.406 | relative viability ([5]; first compound 0.01 µM): 0.971 | relative viability ([5]; first compound 0.03162 µM): 0.781 | relative viability ([5]; first compound 0.3162 µM): 0.673 | relative viability ([6]; first compound 0.01 µM): 0.645 | relative viability ([6]; first compound 0.03162 µM): 0.69 | relative viability ([6]; first compound 0.3162 µM): 0.494 | relative viability ([7]; first compound 0.01 µM): 0.72 | relative viability ([7]; first compound 0.03162 µM): 0.667 | relative viability ([7]; first compound 0.3162 µM): 0.664 | relative viability ([8]; first compound 0.01 µM): 0.545 | relative viability ([8]; first compound 0.03162 µM): 0.514 | relative viability ([8]; first compound 0.3162 µM): 0.503 | relative viability ([9]; first compound 0.01 µM): 1.39 | relative viability ([9]; first compound 0.03162 µM): 1.14 | relative viability ([9]; first compound 0.3162 µM): 1.1 | relative viability ([10]; first compound 0.01 µM): 0.962 | relative viability ([10]; first compound 0.03162 µM): 0.955 | relative viability ([10]; first compound 0.3162 µM): 1 | relative viability ([11]; first compound 0.01 µM): 0.609 | relative viability ([11]; first compound 0.03162 µM): 0.819 | relative viability ([11]; first compound 0.3162 µM): 0.665 | relative viability ([12]; first compound 0.01 µM): 0.88 | relative viability ([12]; first compound 0.03162 µM): 0.904 | relative viability ([12]; first compound 0.3162 µM): 0.822 | relative viability ([13]; first compound 0.01 µM): 0.996 | relative viability ([13]; first compound 0.03162 µM): 0.924 | relative viability ([13]; first compound 0.3162 µM): 0.888 | relative viability ([14]; first compound 0.01 µM): 0.627 | relative viability ([14]; first compound 0.03162 µM): 0.715 | relative viability ([14]; first compound 0.3162 µM): 0.684 | relative viability ([15]; first compound 0.01 µM): 0.259 | relative viability ([15]; first compound 0.03162 µM): 0.253 | relative viability ([15]; first compound 0.3162 µM): 0.275 | relative viability ([16]; first compound 0.01 µM): 0.718 | relative viability ([16]; first compound 0.03162 µM): 0.699 | relative viability ([16]; first compound 0.3162 µM): 0.759 | relative viability ([17]; first compound 0.01 µM): 0.623 | relative viability ([17]; first compound 0.03162 µM): 0.834 | relative viability ([17]; first compound 0.3162 µM): 0.669 | relative viability ([18]; first compound 0.01 µM): 1.08 | relative viability ([18]; first compound 0.03162 µM): 1.07 | relative viability ([18]; first compound 0.3162 µM): 1.01 | relative viability ([19]; first compound 0.01 µM): 0.784 | relative viability ([19]; first compound 0.03162 µM): 0.884 | relative viability ([19]; first compound 0.3162 µM): 0.791 | relative viability ([20]; first compound 0.03162 µM): 0.572 | relative viability ([20]; first compound 0.3162 µM): 0.573 | relative viability ([21]; first compound 0.01 µM): 0.667 | relative viability ([21]; first compound 0.03162 µM): 0.598 | relative viability ([21]; first compound 0.3162 µM): 0.641 | relative viability ([22]; first compound 0.03162 µM): 0.563 | relative viability ([22]; first compound 0.3162 µM): 0.901 | relative viability ([23]; first compound 0.01 µM): 1.02 | relative viability ([23]; first compound 0.03162 µM): 0.698 | relative viability ([23]; first compound 0.3162 µM): 0.747 | relative viability ([24]; first compound 0.01 µM): 0.392 | relative viability ([24]; first compound 0.03162 µM): 0.422 | relative viability ([24]; first compound 0.3162 µM): 0.372
